What was measured:
Format in all cases: cell-based, human
[1] = test system: patient derived tumour cell aggregates; assay: Selection Factor (tumoroids' area decrease) across patient samples; settings: for immune reaction reducing the number of tumour cells (Selection Factor across samples): FIGS. 8 and 9, alone or in combination, immune system of a naïve patient sample only
[2] = test system: ovarian cancer tumoroids; assay: ex vivo 3D patient-derived tumour culture with 3D imaging, ovarian cancer samples; settings: for area size of small objects (smaller than 160 μm^2, immune cells): same ovarian tumour sample as FIG. 4, FIG. 5
[3] = test system: lung tumour sample; assay: ex vivo 3D patient-derived tumour culture with 3D imaging, lung tumour sample; settings: FIG. 6
[4] = test system: Mesothelioma tumour sample; assay: ex vivo 3D patient-derived tumour culture with 3D imaging, mesothelioma sample; settings: FIG. 3
[5] = test system: IFN-γ; assay: IFN-γ production in treated patient-derived cultures; settings: FIG. 7; IFN-γ is secreted by activated T-cells

Molecule	immune reaction reducing the number of tumour cells (Selection Factor across samples) [1]	area size of small objects (smaller than 160 μm^2, immune cells) [2]	killing effect in a lung cancer tumour sample [3]	also measured
O=C(c1cc(Cc2n[nH]c(=O)c3ccccc23)ccc1F)N1CCN(C(=O)C2CC2)CC1 [olaparib]	able to start an immune reaction that effectively reduced the number of tumour cells			
pembrolizumab		area size increase of small objects	killing effect in a lung cancer tumour sample	killing effect, i.e. area size reduction of tumoroid clusters ([2]; ovarian tumour sample, FIG. 4): killing effect, i.e. area size reduction of tumoroid clusters
nivolumab			killing effect in a lung cancer tumour sample	
Nc1ncnc2c1ncn2[C@@H]1O[C@@H]2COP(=O)([S-])O[C@@H]3[C@H](O)[C@@H](COP([O-])(=S)O[C@H]2[C@H]1O)O[C@H]3n1cnc2c(N)ncnc21.[Na+].[Na+] (stereo partly shown) [ADU-S100]		area size increase of small objects		
ipilimumab	able to start an immune reaction that effectively reduced the number of tumour cells		killing effect in a lung cancer tumour sample	in-vitro Selection Factor ([1]; subset of patients that benefit from treatment): below −30%; activating native immune cells to kill ovarian cancer tumoroids (total area of objects larger than 422 μm^2 / smaller than 160 μm^2) ([2]; ovarian cancer samples of FIG. 1): showed effectiveness in activating immune cells; activating native immune cells to kill tumoroids ([2]; ovarian cancer samples of FIG. 2): does not show effectiveness; immune-mediated tumoroid killing effect [4]: showing immune-mediated tumoroid killing effect; IFN-γ production [5]: increased
